Assay results taken from PubChem BioAssay AID1159536 (DiRusso Lab, Biochemistry Department, University of Nebraska, 2015).
Results filed as inconclusive are left out. The source made the active and inactive calls. No rule for the calls is given here.

Tested on: Chlamydomonas reinhardtii, Nile Red lipid fluorescence, 72 h
Test: compounds raising TAG storage in Chlamydomonas – qHTS, Chlamydomonas reinhardtii, dose response (AID 1159536)

Row | SMILES | EC50
1 | CCc1ccc(CN2CCN(CC)CC2)cc1 | 4.68 µM
2 | COc1ccc(C(=O)c2ccc(N3CCN(C)CC3)c([N+](=O)[O-])c2)cc1 | 1.27 µM (inactive)
3 | O=S(=O)(c1ccc(F)cc1)N1CCN(C2CCCCC2)CC1 | 10.2 µM
4 | Cc1ccc(C(=O)c2ccc(N3CCN(C)CC3)c(F)c2)cc1C | 13.4 µM (inactive)
5 | O=C(O)CCSCC(=O)c1ccc(NS(=O)(=O)c2ccccc2)cc1 | 30.6 µM (inactive)
6 | C=CCc1ccccc1OCC(O)CN(C)C1CCCCC1 (stereo unspecified) | 4.88 µM
7 | Cc1cccc(OCCCCN2CCOCC2)c1 | 2.69 µM
8 | Fc1ccc(N2CCN(Cc3ccccc3)CC2)cc1 | 1.37 µM
9 | Oc1ccc(CN2CCN(c3cccc(Cl)c3)CC2)cc1 | 0.0276 µM
10 | CCCCOc1ccc(CN2CCN(c3ccc([N+](=O)[O-])cc3)CC2)cc1 | 2.7 µM
11 | COc1cccc(CN2CCN(Cc3ccc(F)cc3)CC2)c1OC | 0.651 µM
12 | Cc1ccccc1N1CCN(Cc2ccc(F)cc2)CC1 | 1.35 µM
13 | c1cc2c(cc1CNC1CCCC1)OCO2 | 10.7 µM
14 | O=S(=O)(c1ccc(F)cc1)n1cccc1 | 0.684 µM (inactive)
15 | CCN(Cc1ccccc1)C(=O)C1CCN(CCCc2ccccc2)CC1 | 1.3 µM
16 | c1coc(CN2CCN(C3CCCCC3)CC2)c1 | 12.2 µM
17 | Cc1cccc(-c2cc(NC(=O)c3ccc([N+](=O)[O-])cc3)n[nH]2)c1 | 6.94 µM
18 | CCN1CCN(C(=O)c2ccc(C(C)(C)C)cc2)CC1 | 1.4 µM
19 | Cc1ccc(C(=O)c2ccc(N3CCN(C)CC3)c([N+](=O)[O-])c2)cc1 | 2.59 µM (inactive)
20 | CCOc1c(Cl)cc(C(=O)Nc2cccc([N+](=O)[O-])c2)cc1Cl | 13.4 µM (inactive)
21 | CCOc1ccc(CN2CCN(c3ccccc3C)CC2)cc1 | 1.3 µM
22 | Clc1cccc(N2CCN(Cc3ccsc3)CC2)c1 | 3.96 µM
23 | Clc1ccccc1OCCCCN1CCOCC1 | 5.38 µM
24 | CC(C)NC(=O)c1ccccc1NC(=O)c1ccc(Cl)cc1 | 0.59 µM (inactive)
25 | CCC(C)N1CCN(Cc2ccc([N+](=O)[O-])cc2)CC1 (stereo unspecified) | 10.5 µM
26 | c1ccc(CN2CCN(C3CC4CCC3C4)CC2)cc1 (stereo unspecified) | 10.1 µM

Row | SMILES | EC50
27 | COc1ccc(OCCCN2CCCCC2)cc1 | 13.8 µM
28 | COc1cc(CN2CCN(Cc3ccccc3)CC2)cc(OC)c1 | 8.98 µM
29 | CCS(=O)(=O)N1CCN(C2CCCCCCC2)CC1 | 5.99 µM
30 | COc1cccc(N2CCN(Cc3ccsc3)CC2)c1 | 10 µM
31 | COc1ccc(CNC2CCSC2)cc1 (stereo unspecified) | 0.314 µM
32 | Cc1ccc(C(C)C)cc1OCCOCCN1CCOCC1 | 2.18 µM
33 | C1=CC2CC1CC2CN1CCN(Cc2ccccc2)CC1 (stereo unspecified) | 6.19 µM
34 | Cc1cc(C=O)c(C)n1-c1ccc(Br)cc1F | 12 µM (inactive)
35 | CS(=O)(=O)N1CCN(C2C3CC4CC(C3)CC2C4)CC1 (stereo unspecified) | 4.68 µM
36 | COc1cc(CN2CCN(Cc3ccc([N+](=O)[O-])cc3)CC2)cc(OC)c1 | 3.78 µM
37 | COc1ccc(CN(C)C2CCCCC2)cc1C | 2.69 µM
38 | CCc1ccc(CN2CCC(C(=O)N(CC)Cc3ccccc3)CC2)cc1 | 0.708 µM
39 | OC(COc1ccc(Br)cc1)CN1CCCCCC1 (stereo unspecified) | 10.6 µM (inactive)
40 | C/C=C(\C)CN1CCN(c2ccc(C)cc2)CC1 | 4.18 µM
41 | CC(C)c1ccc(CN2CCN(C)CC2)cc1 | 3.5 µM
42 | CC(=O)N(C1=C(Nc2ccccc2)C(=O)c2ccccc2C1=O)c1ccccc1 | 15.2 µM (inactive)
43 | CC1CCCC(N2CCN(Cc3ccccc3)CC2)C1 (stereo unspecified) | 0.811 µM
44 | CN1CCN(c2ccc([N+](=O)[O-])c(N3CCCCC3)c2)CC1 | 10.1 µM
45 | Cc1ccc(C)c(N2CCN(Cc3ccc([N+](=O)[O-])cc3)CC2)c1 | 1.29 µM
46 | c1coc(CN2CCN(C3CCCCCC3)CC2)c1 | 4.76 µM
47 | CCSc1ccc(C(=O)Nc2ccc(Cc3ccncc3)cc2)cc1[N+](=O)[O-] | 2.64 µM
48 | COc1ccc(CNC2CCCC(C)C2)cc1 (stereo unspecified) | 7.06 µM
49 | O=S(=O)(c1ccc(Cl)c(Cl)c1Cl)N1CCN(c2ccc(F)cc2)CC1 | 0.0144 µM (inactive)
50 | OC(CNCCc1ccccc1)c1ccccc1 (stereo unspecified) | 6.91 µM
51 | C(#CC12CC3CC(CC(C3)C1)C2)CN1CCOCC1 | 3.27 µM
